Results: PMC11284788, “NN1213 – A Potent, Long-Acting, and Selective Analog of Human Amylin” (Journal of Medicinal Chemistry, 2024)
Converted amounts (≈) assume the structure as drawn. Like-named read-outs stand apart in the source and are kept apart here. Numbered stars: 1 amine (or outer) side, 2 acyl side, 3 side chain; on linkers, the order of the positions; unused ones are H or OH. Bridge positions count the residues as written; N and C are the ends. Side chains are listed from the residue outwards. Peptide text beside a SMILES is read from it. * marks the point of attachment. C20 diacid = O=C(O)CCCCCCCCCCCCCCCCCCC(=O)*; γGlu = O=C(O)[C@H](CCC(=O)[*:2])N[*:1]

Assays:
[1] = Solubility versus pH profile
hAMY3R = biological target: T1, hAMY3R (Homo sapiens, UniProt O60896+P30988); assay: cAMP-responsive element luciferase reporter assay, human AMY3R; assay type: cell-based; set-up: expressed in transfected cells; details: for EC50: luciferase (human receptor assay); for ratio hCTR/hAMY3R: ratio of luciferase EC50 values
T1 sequence (P30988 25-474): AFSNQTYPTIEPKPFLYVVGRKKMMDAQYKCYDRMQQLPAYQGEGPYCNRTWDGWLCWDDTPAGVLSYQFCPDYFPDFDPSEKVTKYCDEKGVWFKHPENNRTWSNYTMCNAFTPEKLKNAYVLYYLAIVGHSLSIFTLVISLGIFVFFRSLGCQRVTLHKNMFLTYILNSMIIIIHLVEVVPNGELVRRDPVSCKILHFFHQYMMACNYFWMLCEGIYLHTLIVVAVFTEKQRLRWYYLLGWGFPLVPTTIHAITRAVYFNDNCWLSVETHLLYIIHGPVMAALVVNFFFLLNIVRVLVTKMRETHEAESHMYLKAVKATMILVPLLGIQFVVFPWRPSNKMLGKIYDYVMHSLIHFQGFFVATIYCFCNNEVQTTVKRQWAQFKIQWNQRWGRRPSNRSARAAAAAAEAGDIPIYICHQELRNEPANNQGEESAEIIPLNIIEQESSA
T1 sequence (O60896 24-148 partner): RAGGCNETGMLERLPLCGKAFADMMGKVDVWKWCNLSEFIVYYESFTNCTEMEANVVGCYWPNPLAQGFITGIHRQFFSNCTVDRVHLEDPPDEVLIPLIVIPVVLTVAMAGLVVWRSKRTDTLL

rAMY3R = biological target: T2, rAMY3R (Rattus norvegicus, UniProt P32214+Q9JJ73); assay: scintillation proximity binding assay, rAMY3R membranes; set-up: expressed in transfected cells; host or cells: BHK tk-ts 13, transient co-transfection (FuGENE 6); details: for ratio rCTR/rAMY3R: ratio of binding IC50 values
T2 sequence (P32214 25-479 isoform P32214-2 limits assumed): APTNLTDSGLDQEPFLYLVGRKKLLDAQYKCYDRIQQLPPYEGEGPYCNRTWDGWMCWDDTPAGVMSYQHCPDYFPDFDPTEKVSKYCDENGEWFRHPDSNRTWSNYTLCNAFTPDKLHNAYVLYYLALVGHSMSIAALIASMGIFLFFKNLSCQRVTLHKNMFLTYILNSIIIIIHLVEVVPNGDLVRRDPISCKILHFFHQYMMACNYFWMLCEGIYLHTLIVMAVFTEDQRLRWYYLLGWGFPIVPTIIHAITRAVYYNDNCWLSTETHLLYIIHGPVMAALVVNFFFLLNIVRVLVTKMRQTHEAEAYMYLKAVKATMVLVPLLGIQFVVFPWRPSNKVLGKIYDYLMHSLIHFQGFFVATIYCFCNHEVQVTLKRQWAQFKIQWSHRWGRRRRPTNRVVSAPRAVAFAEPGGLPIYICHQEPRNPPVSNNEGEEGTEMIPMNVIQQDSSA
T2 sequence (Q9JJ73 23-147 partner): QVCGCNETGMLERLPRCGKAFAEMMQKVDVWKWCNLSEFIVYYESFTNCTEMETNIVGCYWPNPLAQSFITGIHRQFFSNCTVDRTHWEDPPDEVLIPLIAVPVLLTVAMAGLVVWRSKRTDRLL
Experimental: The apparent binding affinities were determined using a scintillation proximity assay with beads from PerkinElmer and cell membranes containing the AMY3R or CTRs. […] Membranes were harvested and membranes were prepared and kept at −80 °C until use. The assay was performed in a 384-well Optiplate (PerkinElmer). Membranes were mixed with scintillation proximity assay beads in a 1:1 ratio. […] Samples were analyzed on a TopCounter (Packard). The IC50 values were calculated using GraphPad Prism. See Supporting Information S7: SAR Screening Assay Methods (Binding Assays (Human and Rat)) for more information.
Binding Assays (Human and Rat). Brief descriptions of the methods used to determine binding affinities for SAR analysis are described below. Curves and IC50 values were plotted and calculated in GraphPad Prism using nonlinear regression (one site binding competition analysis), with pIC50 values […]
values were used to calculate the binding affinity ratios in order to express the selectivity of compounds for the AMY3R versus the CTR.
CTR Binding Assay. The binding assay was performed using scintillation proximity assay (SPA) beads (RPNQ0001) from PerkinElmer and cell membranes containing either the hCTR or rCTR. BHK […]
(§1) Membranes were prepared in the following way: the cells were rinsed with PBS and incubated with Versene for approximately 5 min before harvesting. The cells were flushed with PBS and the cell-suspension was centrifuged for 5 min at 1000 rpm. Cells were homogenized (Ultra Turrax) in a buffer […]
containing 20 mM Na-HEPES and 0.1 mM EDTA (pH 7.4, buffer 2). The resulting pellet was re-suspended in buffer 2 and protein concentration was measured (BCA protein assay, Pierce). The homogenate was kept cold during the whole procedure. The membranes were stored at –80 °C until […]
The binding assay was performed in a 384-well Optiplate (PerkinElmer) in a total volume of 40 μL.
Membranes were mixed with SPA beads in a 1:1 ratio. […]
mg/well. Test compounds were dissolved in DMSO and further diluted in assay buffer (50 mM HEPES, pH 7.4, 1 mM CaCl2, 5 mM MgCl2, 0.1% ovalbumin, and 0.02% Tween-20).
Calcitonin (NEX422 PerkinElmer) was dissolved in assay buffer and added to the Optiplate at a final […]
prior to centrifugation (1500 rpm, 10 min). Samples were analyzed on TopCounter (Packard).
AMY3R Binding Assay. The binding assay was performed using SPA beads (RPNQ0001) from PerkinElmer and cell membranes containing either the hAMY3R or rAMY3R. BHK tk-ts 13 cells were […]
as §1, with “and cultured as described above. Membranes” for “Membranes”, “buffer containing 20 mM Na-HEPES and 10 mM EDTA (pH 7.4), and” for “buffer”
The resulting pellet was re-suspended, homogenized, and
7.4, buffer 2). The resulting pellet was re-suspended in buffer 2 and protein concentration was measured (BCA protein assay, Pierce). The homogenate was kept cold during the whole procedure.
The membranes were stored at –80 °C until use.
Membranes were mixed with SPA beads in a 1:1 ratio. The final concentration of SPA beads was 0.05 mg/well. Test compounds were dissolved in DMSO and further diluted in assay buffer (50 mM […]
rAMY (NEX448 PerkinElmer) was dissolved in assay buffer and added to the Optiplate at a final

[2] = bis-tris-propane buffer, pH 6, aqueous buffer
[3] = bis-tris-propane buffer, pH 6.5, aqueous buffer
[4] = bis-tris-propane buffer, pH 7, aqueous buffer
[5] = bis-tris-propane buffer, pH 7.5, aqueous buffer
[6] = bis-tris-propane buffer, pH 8, aqueous buffer
[7] = lactate buffer, pH 4, aqueous buffer
[8] = lactate buffer, pH 5, aqueous buffer

SMILES: CC[C@H](C)[C@H](NC(=O)[C@H](C)NC(=O)CNC(=O)[C@H](Cc1ccccc1)NC(=O)[C@H](CC(N)=O)NC(=O)[C@@H]1CCCN1C(=O)[C@H](CO)NC(=O)[C@H](CO)NC(=O)[C@H](Cc1c[nH]cn1)NC(=O)[C@H](CCCNC(=N)N)NC(=O)[C@H](CC(C)C)NC(=O)[C@H](Cc1ccccc1)NC(=O)[C@H](CC(N)=O)NC(=O)[C@H](C)NC(=O)[C@H](CC(C)C)NC(=O)[C@H](CCCNC(=N)N)NC(=O)[C@H](CCC(N)=O)NC(=O)[C@@H](NC(=O)[C@H](C)NC(=O)[C@@H]1CSSC[C@H](NC(=O)[C@H](CCCCN)NC(=O)CC[C@H](NC(=O)CCCCCCCCCCCCCCCCCCC(=O)O)C(=O)O)C(=O)N[C@@H](CC(N)=O)C(=O)N[C@@H]([C@@H](C)O)C(=O)N[C@@H](C)C(=O)N[C@@H]([C@@H](C)O)C(=O)N1)[C@@H](C)O)C(=O)N1CCC[C@H]1C(=O)N[C@@H](CO)C(=O)N[C@@H](CO)C(=O)N[C@H](C(=O)N[C@@H](CC(N)=O)C(=O)N[C@H](C(=O)NCC(=O)N[C@@H](CO)C(=O)N[C@@H](CCCCN)C(=O)N[C@H](C(=O)N[C@@H](Cc1ccc(O)cc1)C(N)=O)[C@@H](C)O)C(C)C)[C@@H](C)O [Peptide 13]
- solubility kinetic [1, 2]: ≥ 200 µM
- solubility kinetic [1, 3]: ≥ 200 µM
- solubility kinetic [1, 4]: ≥ 200 µM
- solubility kinetic [1, 5]: ≥ 200 µM
- solubility kinetic [1, 6]: ≥ 200 µM
- solubility kinetic [1, 7]: ≥ 200 µM
- solubility kinetic [1, 8]: ≥ 200 µM
- EC50 (hAMY3R; Tables S12 and S14, read-out: hAMY3R pEC50 (converted)): 0.309 nM
- EC50 (hAMY3R; BHK cells stably expressing hCTR+RAMP3 and CRE-luciferase, 3 h, 37 °C, 10% FBS, read-out: hAMY3R EC50): 0.31 nM
- ratio hCTR/hAMY3R (hAMY3R): 8.4
- rAMY3R pIC50 (rAMY3R; SPA binding assay, Tables S13 and S15): 8.77
- ratio rCTR/rAMY3R (rAMY3R): 52

SMILES: CC[C@H](C)[C@H](NC(=O)[C@H](C)NC(=O)CNC(=O)[C@H](Cc1ccccc1)NC(=O)[C@H](CC(N)=O)NC(=O)[C@@H]1CCCN1C(=O)[C@H](CO)NC(=O)[C@H](CO)NC(=O)[C@H](Cc1c[nH]cn1)NC(=O)[C@H](CCCNC(=N)N)NC(=O)[C@H](CC(C)C)NC(=O)[C@H](Cc1ccccc1)NC(=O)[C@H](CC(=O)O)NC(=O)[C@H](C)NC(=O)[C@H](CC(C)C)NC(=O)[C@H](CCCNC(=N)N)NC(=O)[C@H](CCC(N)=O)NC(=O)[C@@H](NC(=O)[C@H](C)NC(=O)[C@@H]1CSSC[C@H](NC(=O)[C@@H](N)CCCCNC(=O)CC[C@H](NC(=O)CC[C@H](NC(=O)CCCCCCCCCCCCCCCCCCC(=O)O)C(=O)O)C(=O)O)C(=O)N[C@@H](CC(N)=O)C(=O)N[C@@H]([C@@H](C)O)C(=O)N[C@@H](C)C(=O)N[C@@H]([C@@H](C)O)C(=O)N1)[C@@H](C)O)C(=O)N1CCC[C@H]1C(=O)N[C@@H](CO)C(=O)N[C@@H](CO)C(=O)N[C@H](C(=O)N[C@@H](CC(N)=O)C(=O)N[C@H](C(=O)NCC(=O)N[C@@H](CO)C(=O)N[C@@H](CC(=O)O)C(=O)N[C@H](C(=O)N[C@@H](Cc1ccc(O)cc1)C(N)=O)[C@@H](C)O)C(C)C)[C@@H](C)O [Peptide 6] (H-K([γGlu-γGlu-C20 diacid])CNTATCATQRLADFLRHSSPNFGAIPSSTNVGSDTY-NH2; disulfide 2-7)
- solubility kinetic [1, 2]: ≥ 200 µM
- solubility kinetic [1, 3]: 190 µM (≈ 857 µg/mL)
- solubility kinetic [1, 4]: ≥ 200 µM
- solubility kinetic [1, 5]: ≥ 200 µM
- solubility kinetic [1, 6]: ≥ 200 µM
- solubility kinetic [1, 7]: ≥ 200 µM
- solubility kinetic [1, 8]: ≥ 200 µM
- ratio hCTR/hAMY3R (hAMY3R): 15
- ratio rCTR/rAMY3R (rAMY3R): 447

SMILES: CC[C@H](C)[C@H](NC(=O)[C@H](C)NC(=O)CNC(=O)[C@H](Cc1ccccc1)NC(=O)[C@H](CC(N)=O)NC(=O)[C@@H]1CCCN1C(=O)[C@H](CO)NC(=O)[C@H](CO)NC(=O)[C@H](Cc1c[nH]cn1)NC(=O)[C@H](CCCNC(=N)N)NC(=O)[C@H](CC(C)C)NC(=O)[C@H](Cc1ccccc1)NC(=O)[C@H](CC(=O)O)NC(=O)[C@H](C)NC(=O)[C@H](CC(C)C)NC(=O)[C@H](CCCNC(=N)N)NC(=O)[C@H](CCC(N)=O)NC(=O)[C@@H](NC(=O)[C@H](C)NC(=O)[C@@H]1CSSC[C@H](NC(=O)[C@@H](N)CCCCNC(=O)CC[C@H](NC(=O)CC[C@H](NC(=O)CCCCCCCCCCCCCCCCCCC(=O)O)C(=O)O)C(=O)O)C(=O)N[C@@H](CC(N)=O)C(=O)N[C@@H]([C@@H](C)O)C(=O)N[C@@H](C)C(=O)N[C@@H]([C@@H](C)O)C(=O)N1)[C@@H](C)O)C(=O)N1CCC[C@H]1C(=O)N[C@@H](CO)C(=O)N[C@@H](CO)C(=O)N[C@H](C(=O)N[C@@H](CC(N)=O)C(=O)N[C@H](C(=O)NCC(=O)N[C@@H](CO)C(=O)N[C@@H](CCCNC(=N)N)C(=O)N[C@H](C(=O)N[C@@H](Cc1ccc(O)cc1)C(N)=O)[C@@H](C)O)C(C)C)[C@@H](C)O [NN1213]
- solubility kinetic [1, 2]: ≥ 200 µM
- solubility kinetic [1, 3]: ≥ 200 µM
- solubility kinetic [1, 4]: 155 µM (≈ 706 µg/mL)
- solubility kinetic [1, 5]: 106 µM (≈ 483 µg/mL)
- solubility kinetic [1, 6]: 110 µM (≈ 501 µg/mL)
- solubility kinetic [1, 7]: ≥ 200 µM
- solubility kinetic [1, 8]: ≥ 200 µM
- ratio hCTR/hAMY3R (hAMY3R; listed as 21): 29
- ratio rCTR/rAMY3R (rAMY3R): 465
